{
  "source": "patent US20230248744A1",
  "about": "“25-HYDROXYVITAMIN D2 AND/OR D3 FOR USE IN OBESITY” (CARBOGEN AMCIS B.V., priority 2020, published 2023)",
  "key": {"[1]": {"details": "cited from earlier work"}, "[2]": {"test": "Double-blind randomized crossover pharmacokinetic study, single oral 900 μg vitamin D3 or 25(OH)D3", "format": "in vivo, human", "details": "for Cmax / Tmax / concentration at 14 days / half-life / AUC: both sexes, human, serum, po, single oral 900 μg, mean ± SEM; for Cmax / Tmax / half-life / AUC: 900 ug; for concentration at 14 days: 900 μg, read-out: Ctrough (trough level at day 14); for half-life: read-out: T1/2 (elimination half-life) (converted)", "experimental": "The conclusions as presented herein are based on the following experiments: In a double-blinded cross-over study single high dosages (900 μg total in two soft gel capsules containing 450 μg) of either vitamin D3 or 25(OH)D3 were administered to vitamin D-deficient volunteers including healthy controls as well as subjects with a history of malabsorption. At the outset, the BMI was determined. Blood samples were then taken at baseline and at 2, 4, 6, 8, and 12 hours as well as 1, 2, 3, 7, and 14 days after administration (FIG. 2). All the samples were analyzed for their contents in vitamin D3 per se as well as 25(OH)D3. […] In addition, peak levels were more rapidly reached with 25(OH)D3 than with vitamin D3 (see FIG. 5). The immediate increase in serum 25(OH)D3 compared to the delayed increase observed with vitamin D3 supports the concept that 25(OH)D3 is being rapidly absorbed from the small intestine into the portal circulation, whereas vitamin D3 first needs to be incorporated into the chylomicrons which are absorbed into the lymphatic system.\nThe pharmacokinetic parameters of orally administered 25(OH)D3 and vitamin D3 (both provided for formulation in form of visually identical soft-gel pills) were studied based on the corresponding serum concentration-time curves in healthy adults and adults with a history of intestinal malabsorption (see FIG. 2). Cinical safety has been evaluated by monitoring serum calcium, phosphorus, parathyroid hormone (PTH) and 25(OH)D levels at the beginning and end of the study. Furthermore, the distribution of supplemented 25(OH)D3 (or 25(OH)D2) into adipose tissue and the role it is playing there was also studied.\nSerum levels of calcium, phosphorus, albumin, creatinine and intact parathyroid hormone (iPTH) were determined at baseline and at the end of each 14-day pharmacokinetic study (see Table 4). The pharmacokinetic parameters have been determined by evaluating the serum concentration-time curves in patients with malabsorption syndrome and healthy controls (Tables 5 and 6).\nThe primary outcomes of the study are the serum pharmacokinetic parameters of 25(OH)D3 and vitamin D3 after a single oral administration of 900 μg of each in a double-blind randomized crossover study.\nAdult patients (18 years and older) with a history of intestinal malabsorption (n=10) and healthy adult volunteers (n=10); (of both sexes and all ethnicities) has been recruited in this randomized double-blinded crossover study. The BMI has been determined and recorded at baseline. All subjects have been prescreened for 25(OH)D levels to include subjects with 25(OH)D<30 ng/mL. The subjects have been randomized to receive two oral doses of 450 μg taken simultaneously (total 900 μg) of either vitamin D3 or 25(OH)D3. Blood samples were taken at baseline and at 2, 4, 6, 8, 12 hours and days 1, 2, 3, 7 and 14. There was a two weeks washout period before the subject received in a double blinded manner, two oral doses of 450 μg taken simultaneously (total 900 μg) of either 25(OH)D3 or vitamin D3 (depending on which one they took in the randomization) any time after the 2 week washout. Blood samples were taken at baseline and at 2, 4, 6, 8, 12 hours and days 1, 2, 3, 7 and 14 days. Serum levels of calcium, phosphorus, albumin, creatinine, and intact parathyroid hormone (iPTH) were obtained at baseline and at day 14 for each arm (or within a reasonable time if the study participant was unable to come on the exact day).\nThe individuals participating in the study had, after signing a consent form, been randomized by a computer randomization chart in a blinded manner to receive two oral doses of 450 μg taken simultaneously (total 900 μg) of either vitamin D3 or 25(OH)D3. Blood samples have been taken at baseline and at 2, 4, 6, 8, 12 hours and days 1, 2, 3, 7 and 14. […]"}, "[3]": {"details": "vitamin D deficient postmenopausal women; single p.o. bolus of 140 μg of each substance; cited from earlier work"}, "[4]": {"details": "cited from earlier work", "remark": "listed apart in the source"}, "[5]": {"details": "single or multiple oral doses of 1250 μg vitamin D, or a dose of 900 μg 25(OH)D3; cited from earlier work"}, "[6]": {"details": "cited from earlier work", "remark": "listed apart in the source"}, "[7]": {"details": "healthy participants with higher BMI (N = 5)"}, "[8]": {"details": "healthy participants with lower BMI (N = 5)"}, "[9]": {"details": "patients with fat malabsorption (N = 6)"}},
  "note": "Like-named read-outs stand apart in the source and are kept apart here.",
  "data": [
    {"compound": "C=C1CC[C@H](O)C/C1=C/C=C1\\CCC[C@]2(C)[C@@H]([C@H](C)/C=C/[C@H](C)C(C)C)CC[C@@H]12", "note": "[vitamin D2, ergocalciferol]", "values": [
      {"measurement": "serum vitamin D concentration reached", "setting": "[1]; five of the seven patients with intestinal fat malabsorption, oral 50,000 IU", "value": "≤ 10", "unit": "ng/mL"}
    ]},
    {"compound": "vitamin D", "values": [
      {"measurement": "peak serum vitamin D concentration", "setting": "[1]; single oral dose of 1.25 mg (50'000 IU), baseline less than 5 ng/mL", "value": "over 50 ng/mL"},
      {"measurement": "time of fall of serum vitamin D to baseline levels", "setting": "[1]; single oral dose of 1.25 mg", "value": "≤ 3", "unit": "days"},
      {"measurement": "time of peak serum vitamin D concentration", "setting": "[1]; single oral dose of 1.25 mg", "value": "≤ 12", "unit": "h"}
    ]},
    {"compound": "C=C1CC[C@H](O)C/C1=C/C=C1\\CCC[C@]2(C)[C@@H]([C@H](C)CCCC(C)(C)O)CC[C@@H]12", "note": "[25-hydroxyvitamin D3]", "values": [
      {"measurement": "time at which the peak of the serum concentration is reached", "setting": "[2]; FIG. 5, oral 900 μg", "value": "~8", "unit": "h"},
      {"measurement": "bioavailability in subjects with a history of vitamin D/fat malabsorption", "setting": "[2]; after administration of the respective product, FIGS. 3a and b", "value": "almost normal"},
      {"measurement": "Cmax", "setting": "[2]; healthy participants (N = 10)", "value": "23.1 ± 4.6", "unit": "ng/mL"},
      {"measurement": "Tmax", "setting": "[2]; healthy participants (N = 10)", "value": "11.2 ± 4.1", "unit": "h"},
      {"measurement": "concentration at 14 days", "setting": "[2]; healthy participants (N = 10)", "value": "6.1 ± 1.3", "unit": "ng/mL"},
      {"measurement": "half-life", "setting": "[2]; healthy participants (N = 10)", "value": "60.6 ± 7.9", "unit": "h"},
      {"measurement": "AUC", "setting": "[2]; healthy participants (N = 10), serum level of the administered substance", "value": "3130 ± 545", "unit": "ng·h/mL"},
      {"measurement": "AUC", "setting": "[2]; [7]", "value": "2620 ± 855", "unit": "ng·h/mL"},
      {"measurement": "Cmax", "setting": "[2]; [7]", "value": "21.4 ± 8", "unit": "ng/mL"},
      {"measurement": "Tmax", "setting": "[2]; [7]", "value": "15.2 ± 8.2", "unit": "h"},
      {"measurement": "concentration at 14 days", "setting": "[2]; [7]", "value": "4.6 ± 1.4", "unit": "ng/mL"},
      {"measurement": "half-life", "setting": "[2]; [7]", "value": "55 ± 10.7", "unit": "h"},
      {"measurement": "AUC", "setting": "[2]; [8]", "value": "3630 ± 690", "unit": "ng·h/mL"},
      {"measurement": "Cmax", "setting": "[2]; [8]", "value": "24.8 ± 5.5", "unit": "ng/mL"},
      {"measurement": "Tmax", "setting": "[2]; [8]", "value": "7.2 ± 0.5", "unit": "h"},
      {"measurement": "concentration at 14 days", "setting": "[2]; [8]", "value": "7.6 ± 2.1", "unit": "ng/mL"},
      {"measurement": "half-life", "setting": "[2]; [8]", "value": "66.2 ± 12.3", "unit": "h"},
      {"measurement": "Cmax", "setting": "[2]; [9]", "value": "23.2 ± 6.8", "unit": "ng/mL"},
      {"measurement": "Tmax", "setting": "[2]; [9]", "value": "5.3 ± 0.7", "unit": "h"},
      {"measurement": "concentration at 14 days", "setting": "[2]; [9]", "value": "6.7 ± 1.5", "unit": "ng/mL"},
      {"measurement": "half-life", "setting": "[2]; [9]", "value": "65.7 ± 29.9", "unit": "h"},
      {"measurement": "AUC", "setting": "[2]; patients with fat malabsorption (N = 6), serum level of the administered substance", "value": "2670 ± 735", "unit": "ng·h/mL"},
      {"measurement": "Cmax increase over baseline of 25(OH)D3", "setting": "[3]", "value": 24.7, "unit": "ng/mL"},
      {"measurement": "increase of 25(OH)D by 24 hours", "setting": "[4]; after bolus intravenous dose", "value": 40, "unit": "ng/mL"},
      {"measurement": "toxicity", "setting": "[4]; bolus intravenous 448 μg or 900 μg slow release", "value": "No toxicity was observed"},
      {"measurement": "increase of peak concentration of 25(OH)D above baseline", "setting": "[4]; bolus intravenous dose of 448 μg", "value": "approximately 110 ng/mL"},
      {"measurement": "toxicity in pharmacokinetic study", "setting": "[4]; oral single dose of 900 μg", "value": "did not show any untoward toxicity"},
      {"measurement": "reports of toxicity", "setting": "[5]", "value": "toxicity has never been reported"},
      {"measurement": "power of oral calcifediol relative to oral cholecalciferol (vitamin D3)", "setting": "[6]", "value": "three- to five-time more powerful"}
    ]}
  ]
}
